From patent US20260356819A1, “OXOISOINDOLINYL-SUBSTITUTED […] DERIVATIVE AND USE THEREOF” (GLUETACS THERAPEUTICS (SHANGHAI) CO., LTD., priority 2023, published 2026)

Tests used:
Assay type in all cases: cell-based
Settings in all cases: compounds at 50 nM and 500 nM
WEE1 = biological target: T1, WEE1 (Homo sapiens, UniProt P30291+Q96SW2); assay: Western blot degradation of WEE1 in hPBMCs (24 h)
T1 construct: The supernatant was aspirated as the extracted total cell protein; endogenous in cells; host or cells: human peripheral blood mononuclear cells (hPBMCs)
Method in brief: (§1)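 In this assay, each compound was incubated with human PBMCs for 24 h at 50 nM and 500 nM. Target levels were measured by Western blot densitometry normalised to an internal control.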

IKZF1 = biological target: T2, IKZF1 (Homo sapiens, UniProt Q13422+Q96SW2); assay: Western blot degradation of IKZF1 in hPBMCs (24 h)
T2 construct: The supernatant was aspirated as the extracted total cell protein; endogenous in cells; host or cells: human peripheral blood mononuclear cells (hPBMCs)
Method in brief: as §1

IKZF2 = biological target: T3, IKZF2 (Homo sapiens, UniProt Q96SW2+Q9UKS7); assay: Western blot degradation of IKZF2 in hPBMCs (24 h)
T3 construct: The supernatant was aspirated as the extracted total cell protein; endogenous in cells; host or cells: human peripheral blood mononuclear cells (hPBMCs)
Method in brief: as §1

IKZF3 = biological target: T4, IKZF3 (Homo sapiens, UniProt Q96SW2+Q9UKT9); assay: Western blot degradation of IKZF3 in hPBMCs (24 h)
T4 construct: The supernatant was aspirated as the extracted total cell protein; endogenous in cells; host or cells: human peripheral blood mononuclear cells (hPBMCs)
Method in brief: as §1

CK1α = biological target: T5, CK1α (Homo sapiens, UniProt P48729+Q96SW2); assay: Western blot degradation of CK1α in hPBMCs (24 h)
T5 construct: The supernatant was aspirated as the extracted total cell protein; endogenous in cells; host or cells: human peripheral blood mononuclear cells (hPBMCs)
Method in brief: as §1

GSPT1 = biological target: T6, GSPT1 (Homo sapiens, UniProt P15170+Q96SW2); assay: Western blot degradation of GSPT1 in hPBMCs (24 h)
T6 construct: The supernatant was aspirated as the extracted total cell protein; endogenous in cells; host or cells: human peripheral blood mononuclear cells (hPBMCs)
Method in brief: as §1

T3 sequence (Q9UKS7 whole entry): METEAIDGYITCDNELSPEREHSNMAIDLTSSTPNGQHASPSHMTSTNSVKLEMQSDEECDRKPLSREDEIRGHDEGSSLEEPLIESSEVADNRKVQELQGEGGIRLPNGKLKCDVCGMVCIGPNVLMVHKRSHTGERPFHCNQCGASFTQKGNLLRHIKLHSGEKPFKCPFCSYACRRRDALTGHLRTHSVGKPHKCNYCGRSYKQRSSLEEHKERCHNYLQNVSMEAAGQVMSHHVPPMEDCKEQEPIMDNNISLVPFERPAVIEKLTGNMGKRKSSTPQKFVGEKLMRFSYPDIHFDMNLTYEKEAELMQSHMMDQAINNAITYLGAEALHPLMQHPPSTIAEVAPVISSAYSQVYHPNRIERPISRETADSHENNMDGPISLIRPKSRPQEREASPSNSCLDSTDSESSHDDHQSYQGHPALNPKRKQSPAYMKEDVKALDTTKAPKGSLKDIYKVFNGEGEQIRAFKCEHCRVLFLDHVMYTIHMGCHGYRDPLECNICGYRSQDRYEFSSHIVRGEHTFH
T3 sequence (Q96SW2 whole entry): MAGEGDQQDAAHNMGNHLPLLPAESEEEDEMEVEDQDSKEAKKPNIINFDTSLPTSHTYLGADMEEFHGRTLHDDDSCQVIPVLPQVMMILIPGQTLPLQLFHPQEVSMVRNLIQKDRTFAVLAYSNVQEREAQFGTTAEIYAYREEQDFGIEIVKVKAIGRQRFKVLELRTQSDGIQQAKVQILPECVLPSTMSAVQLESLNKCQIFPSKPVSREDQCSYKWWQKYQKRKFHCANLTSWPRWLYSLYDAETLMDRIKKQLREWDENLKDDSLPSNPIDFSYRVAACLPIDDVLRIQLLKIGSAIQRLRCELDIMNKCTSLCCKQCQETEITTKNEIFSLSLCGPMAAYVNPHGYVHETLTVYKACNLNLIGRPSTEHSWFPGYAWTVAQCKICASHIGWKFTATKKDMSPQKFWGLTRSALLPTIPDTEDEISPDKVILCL
T3 sequence (Q16531 whole entry partner): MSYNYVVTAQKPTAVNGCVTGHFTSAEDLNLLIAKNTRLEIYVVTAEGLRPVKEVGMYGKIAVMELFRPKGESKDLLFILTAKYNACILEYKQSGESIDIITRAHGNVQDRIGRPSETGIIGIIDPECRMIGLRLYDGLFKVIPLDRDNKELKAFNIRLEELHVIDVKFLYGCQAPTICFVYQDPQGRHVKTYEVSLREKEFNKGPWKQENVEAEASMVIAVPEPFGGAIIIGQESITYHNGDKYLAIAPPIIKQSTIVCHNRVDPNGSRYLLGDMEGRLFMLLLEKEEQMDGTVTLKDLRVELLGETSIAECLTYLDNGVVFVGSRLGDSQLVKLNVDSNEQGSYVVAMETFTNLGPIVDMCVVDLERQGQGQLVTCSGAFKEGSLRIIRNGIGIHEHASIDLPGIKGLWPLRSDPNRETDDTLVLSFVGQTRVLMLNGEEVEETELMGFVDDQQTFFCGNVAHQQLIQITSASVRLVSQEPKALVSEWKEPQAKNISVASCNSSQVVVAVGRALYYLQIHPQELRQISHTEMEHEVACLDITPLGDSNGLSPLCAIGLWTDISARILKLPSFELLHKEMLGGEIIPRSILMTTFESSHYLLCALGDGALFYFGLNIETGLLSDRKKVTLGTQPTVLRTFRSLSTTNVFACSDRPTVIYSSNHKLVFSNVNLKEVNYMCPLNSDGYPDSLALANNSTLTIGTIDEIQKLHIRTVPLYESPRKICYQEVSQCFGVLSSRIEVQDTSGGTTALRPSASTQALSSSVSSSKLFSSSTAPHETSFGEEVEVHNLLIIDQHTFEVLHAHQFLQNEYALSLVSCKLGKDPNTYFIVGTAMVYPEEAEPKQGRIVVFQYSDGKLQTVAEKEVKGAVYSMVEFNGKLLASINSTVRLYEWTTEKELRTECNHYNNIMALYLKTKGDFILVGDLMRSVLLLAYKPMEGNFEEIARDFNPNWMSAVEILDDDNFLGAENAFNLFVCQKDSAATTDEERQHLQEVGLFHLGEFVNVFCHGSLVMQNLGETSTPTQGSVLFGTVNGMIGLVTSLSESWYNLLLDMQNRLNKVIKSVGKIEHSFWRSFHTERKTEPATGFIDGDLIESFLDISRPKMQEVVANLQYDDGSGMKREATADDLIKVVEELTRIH
T4 sequence (Q9UKT9 whole entry): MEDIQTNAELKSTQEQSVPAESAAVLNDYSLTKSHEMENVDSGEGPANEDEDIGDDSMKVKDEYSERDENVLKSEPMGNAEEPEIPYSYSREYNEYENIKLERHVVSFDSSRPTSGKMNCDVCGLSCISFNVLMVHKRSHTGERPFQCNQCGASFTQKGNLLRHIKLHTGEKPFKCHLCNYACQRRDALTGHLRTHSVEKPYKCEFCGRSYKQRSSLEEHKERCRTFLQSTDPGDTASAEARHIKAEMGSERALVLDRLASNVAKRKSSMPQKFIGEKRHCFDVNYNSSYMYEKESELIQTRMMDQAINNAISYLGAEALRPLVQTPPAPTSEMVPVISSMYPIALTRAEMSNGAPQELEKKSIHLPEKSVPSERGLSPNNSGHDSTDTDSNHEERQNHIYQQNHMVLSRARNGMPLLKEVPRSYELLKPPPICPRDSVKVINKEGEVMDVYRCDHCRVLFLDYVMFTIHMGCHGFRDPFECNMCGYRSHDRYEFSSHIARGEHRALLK
T4 sequence (Q96SW2 whole entry): as the sequence (Q96SW2 whole entry) above
T4 sequence (Q16531 whole entry partner): as the sequence (Q16531 whole entry partner) above
T2 sequence (Q13422 whole entry): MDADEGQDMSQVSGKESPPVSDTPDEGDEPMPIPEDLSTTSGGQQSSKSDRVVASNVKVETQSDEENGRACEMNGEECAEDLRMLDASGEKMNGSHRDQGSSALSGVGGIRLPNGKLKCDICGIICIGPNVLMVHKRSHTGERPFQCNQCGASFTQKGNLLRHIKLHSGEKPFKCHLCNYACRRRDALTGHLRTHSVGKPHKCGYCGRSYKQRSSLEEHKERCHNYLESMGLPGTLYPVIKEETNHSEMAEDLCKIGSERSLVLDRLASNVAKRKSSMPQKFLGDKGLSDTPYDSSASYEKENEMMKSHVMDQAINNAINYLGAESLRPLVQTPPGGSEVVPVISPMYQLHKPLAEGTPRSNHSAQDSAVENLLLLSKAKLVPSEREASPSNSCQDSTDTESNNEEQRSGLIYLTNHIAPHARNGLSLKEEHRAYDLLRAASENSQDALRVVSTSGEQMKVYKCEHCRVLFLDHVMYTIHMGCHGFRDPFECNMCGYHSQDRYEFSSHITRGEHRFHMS
T2 sequence (Q96SW2 whole entry): as the sequence (Q96SW2 whole entry) above
T2 sequence (Q16531 whole entry partner): as the sequence (Q16531 whole entry partner) above
T6 sequence (P15170 whole entry): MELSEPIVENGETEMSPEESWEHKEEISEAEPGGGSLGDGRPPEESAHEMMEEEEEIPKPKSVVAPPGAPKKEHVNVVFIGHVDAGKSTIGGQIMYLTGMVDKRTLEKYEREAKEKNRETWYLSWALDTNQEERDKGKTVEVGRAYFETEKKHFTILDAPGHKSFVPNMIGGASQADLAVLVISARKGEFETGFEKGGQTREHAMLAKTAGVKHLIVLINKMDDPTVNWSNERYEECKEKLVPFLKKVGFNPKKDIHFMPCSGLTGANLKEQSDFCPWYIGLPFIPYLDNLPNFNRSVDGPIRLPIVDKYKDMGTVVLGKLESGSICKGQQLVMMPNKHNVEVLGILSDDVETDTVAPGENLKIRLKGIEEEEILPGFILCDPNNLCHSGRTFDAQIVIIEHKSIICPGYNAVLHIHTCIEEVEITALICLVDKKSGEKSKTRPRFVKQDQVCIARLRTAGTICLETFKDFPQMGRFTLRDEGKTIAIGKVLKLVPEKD
T6 sequence (Q96SW2 whole entry): as the sequence (Q96SW2 whole entry) above
T6 sequence (Q16531 whole entry partner): as the sequence (Q16531 whole entry partner) above
T5 sequence (P48729 whole entry): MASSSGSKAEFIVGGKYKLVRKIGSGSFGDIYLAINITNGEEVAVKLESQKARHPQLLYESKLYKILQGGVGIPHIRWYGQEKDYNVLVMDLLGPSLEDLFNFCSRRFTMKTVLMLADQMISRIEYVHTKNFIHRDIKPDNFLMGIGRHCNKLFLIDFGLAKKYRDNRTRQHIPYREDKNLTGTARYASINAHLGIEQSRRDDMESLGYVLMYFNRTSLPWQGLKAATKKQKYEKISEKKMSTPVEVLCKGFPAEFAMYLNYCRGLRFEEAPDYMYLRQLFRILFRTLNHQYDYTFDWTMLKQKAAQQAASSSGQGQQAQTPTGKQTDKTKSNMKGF
T5 sequence (Q96SW2 whole entry): as the sequence (Q96SW2 whole entry) above
T5 sequence (Q16531 whole entry partner): as the sequence (Q16531 whole entry partner) above

SMILES | WEE1 substrate protein remaining % (WEE1) | IKZF1 substrate protein remaining % (IKZF1) | IKZF2 substrate protein remaining % (IKZF2) | IKZF3 substrate protein remaining % (IKZF3) | CK1α substrate protein remaining % (CK1α) | GSPT1 substrate protein remaining % (GSPT1)
O=C1CCN(N2C(=O)c3ccc(CN4CCN(c5cnnc(Cl)c5Cl)CC4)cc3C2=O)C(=O)N1 [GT-07035, 5-((4-(5,6-dichloropyridazin-4-yl)piperazin-1-yl)methyl)-2-(2,4-dioxotetrahydropyrimidin-1(2H)-yl)isoindoline-1,3-dione] | B (80%< substrate protein remaining % ≤100%) | B (80%< substrate protein remaining % ≤100%) | B (80%< substrate protein remaining % ≤100%) | A (0% ≤ substrate protein remaining % ≤80%) | A (0% ≤ substrate protein remaining % ≤80%) | A (0% ≤ substrate protein remaining % ≤80%)
O=C1CCN(N2C(=O)c3ccc(CN4C5CC4CN(c4cccc(Cl)c4Cl)C5)cc3C2=O)C(=O)N1 [GT-05251, 5-((3-(2,3-dichlorophenyl)-3,6-diazabicyclo[3.1.1]heptan-6-yl)methyl)-2-(2,4-dioxotetrahydropyrimidin-1(2H)-yl)isoindoline-1,3-dione] | B (80%< substrate protein remaining % ≤100%) | B (80%< substrate protein remaining % ≤100%) | A (0% ≤ substrate protein remaining % ≤80%) | B (80%< substrate protein remaining % ≤100%) | B (80%< substrate protein remaining % ≤100%) | B (80%< substrate protein remaining % ≤100%)
O=C1CCN(N2C(=O)c3ccc(CN4CCC(c5ccccc5)CC4)cc3C2=O)C(=O)N1 [GT-06803, 2-(2,4-dioxotetrahydropyrimidin-1(2H)-yl)-5-((4-phenylpiperidin-1-yl)methyl)isoindoline-1,3-dione] | B (80%< substrate protein remaining % ≤100%) | B (80%< substrate protein remaining % ≤100%) | B (80%< substrate protein remaining % ≤100%) | B (80%< substrate protein remaining % ≤100%) | A (0% ≤ substrate protein remaining % ≤80%) | B (80%< substrate protein remaining % ≤100%)
Cn1cc(C2CCN(Cc3ccc4c(c3)C(=O)N(N3CCC(=O)NC3=O)C4=O)CC2)c2ccc(F)cc21 [GT-07581, 2-(2,4-dioxotetrahydropyrimidin-1(2H)-yl)-5-((4-(6-fluoro-1-methyl-1H-indol-3-yl)piperidin-1-yl)methyl)isoindoline-1,3-dione] | A (0% ≤ substrate protein remaining % ≤80%) | A (0% ≤ substrate protein remaining % ≤80%) | A (0% ≤ substrate protein remaining % ≤80%) | B (80%< substrate protein remaining % ≤100%) | B (80%< substrate protein remaining % ≤100%) | A (0% ≤ substrate protein remaining % ≤80%)
O=C1CCN(N2C(=O)c3ccc(CN4CC=C(c5c[nH]c6cc(F)ccc56)CC4)cc3C2=O)C(=O)N1 [GT-07580, 2-(2,4-dioxotetrahydropyrimidin-1(2H)-yl)-5-((4-(6-fluoro-1H-indol-3-yl)-3,6-dihydropyridin-1(2H)-yl)methyl)isoindoline-1,3-dione] | A (0% ≤ substrate protein remaining % ≤80%) | A (0% ≤ substrate protein remaining % ≤80%) | A (0% ≤ substrate protein remaining % ≤80%) | A (0% ≤ substrate protein remaining % ≤80%) | B (80%< substrate protein remaining % ≤100%) | A (0% ≤ substrate protein remaining % ≤80%)
CC1(C)CCC(CN2C3CC2CN(Cc2ccc4c(c2)CN(N2CCC(=O)NC2=O)C4=O)C3)=C(c2ccc(Cl)cc2)C1 [GT-06458, 1-(5-((6-((4′-chloro-5,5-dimethyl-3,4,5,6-tetrahydro-[1,1′-biphenyl]-2-yl)methyl)-3,6-diazabicyclo[3.1.1]heptan-3-yl)methyl)-1-oxoisoindolin-2-yl)dihydropyrimidine-2,4(1H,3H)-dione] | A (0% ≤ substrate protein remaining % ≤80%) | A (0% ≤ substrate protein remaining % ≤80%) | A (0% ≤ substrate protein remaining % ≤80%) | A (0% ≤ substrate protein remaining % ≤80%) | A (0% ≤ substrate protein remaining % ≤80%) | A (0% ≤ substrate protein remaining % ≤80%)
O=C1CCN(N2Cc3cc(CN4CCN(C(c5ccccc5)c5ccncc5)CC4)ccc3C2=O)C(=O)N1 (stereo not drawn) [GT-04891, 1-(1-oxo-5-((4-(phenyl(pyridin-4-yl)methyl)piperazin-1-yl)methyl)isoindolin-2-yl)dihydropyrimidine-2,4(1H,3H)-dione] | B (80%< substrate protein remaining % ≤100%) | A (0% ≤ substrate protein remaining % ≤80%) | A (0% ≤ substrate protein remaining % ≤80%) | B (80%< substrate protein remaining % ≤100%) | B (80%< substrate protein remaining % ≤100%) | A (0% ≤ substrate protein remaining % ≤80%)
O=C1CCN(N2Cc3cc(CN4CCN(c5ccc(F)cc5F)CC4)ccc3C2=O)C(=O)N1 [GT-06778, 1-(5-((4-(2,4-difluorophenyl)piperazin-1-yl)methyl)-1-oxoisoindolin-2-yl)dihydropyrimidine-2,4(1H,3H)-dione] | B (80%< substrate protein remaining % ≤100%) | B (80%< substrate protein remaining % ≤100%) | B (80%< substrate protein remaining % ≤100%) | B (80%< substrate protein remaining % ≤100%) | A (0% ≤ substrate protein remaining % ≤80%) | A (0% ≤ substrate protein remaining % ≤80%)
O=C1CCN(N2Cc3cc(CN4CCC(c5ccco5)CC4)ccc3C2=O)C(=O)N1 [GT-07374, 1-(5-((4-(furan-2-y1)piperidin-1-yl)methyl)-1-oxoisoindolin-2-yl)dihydropyrimidine-2,4(1H,3H)-dione] | B (80%< substrate protein remaining % ≤100%) | B (80%< substrate protein remaining % ≤100%) | B (80%< substrate protein remaining % ≤100%) | B (80%< substrate protein remaining % ≤100%) | A (0% ≤ substrate protein remaining % ≤80%) | A (0% ≤ substrate protein remaining % ≤80%)
O=C1CCN(N2Cc3cc(CN4CCC(c5c[nH]c6ncccc56)CC4)ccc3C2=O)C(=O)N1 [GT-07576, 1-(5-((4-(1H-pyrrolo[2,3-b]pyridin-3-yl)piperidin-1-yl)methyl)-1-oxoisoindolin-2-yl)dihydropyrimidine-2,4(1H,3H)-dione] | A (0% ≤ substrate protein remaining % ≤80%) | A (0% ≤ substrate protein remaining % ≤80%) | A (0% ≤ substrate protein remaining % ≤80%) | B (80%< substrate protein remaining % ≤100%) | A (0% ≤ substrate protein remaining % ≤80%) | A (0% ≤ substrate protein remaining % ≤80%)
Cc1nc(N2CCN(Cc3ccc4c(c3)CN(N3CCC(=O)NC3=O)C4=O)CC2)c2c3c(sc2n1)CCC3 [GT-08080, 1-(5-((4-(2-methyl-6,7-dihydro-5H-cyclopenta[4,5]thieno[2,3-d]pyrimidin-4-yl)piperazin-1-yl)methyl)-1-oxoisoindolin-2-yl)dihydropyrimidine-2,4(1H,3H)-dione] | A (0% ≤ substrate protein remaining % ≤80%) | B (80%< substrate protein remaining % ≤100%) | B (80%< substrate protein remaining % ≤100%) | B (80%< substrate protein remaining % ≤100%) | A (0% ≤ substrate protein remaining % ≤80%) | A (0% ≤ substrate protein remaining % ≤80%)
Cc1ccccc1N1CCN(Cc2ccc3c(c2)CN(N2CCC(=O)NC2=O)C3=O)CC1 [GT-06769, 1-(1-oxo-5-((4-(o-tolyl)piperazin-1-yl)methyl)isoindolin-2-yl)dihydropyrimidine-2,4(1H,3H)-dione] | A (0% ≤ substrate protein remaining % ≤80%) | B (80%< substrate protein remaining % ≤100%) | A (0% ≤ substrate protein remaining % ≤80%) | A (0% ≤ substrate protein remaining % ≤80%) | A (0% ≤ substrate protein remaining % ≤80%) | A (0% ≤ substrate protein remaining % ≤80%)
